From patent US8586611B2 (priority 2005, dated 2013)

What was measured:
Assay type in all cases: in vivo
[1] = system: Erysiphe graminis f. sp. tritici; assay: Test E: wheat powdery mildew, spray the day before inoculation (disease rating, 100 = 100% disease control)
In short: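 Protective test: spores of E. graminis f. sp. tritici dusted on wheat seedlings one day after run-off spraying of test suspension (acetone/water with 250 ppm surfactant; 200 ppm = 500 g/ha). Ratings after 7 days in growth chamber at 20° C, 100 = full control, 0 = none, relative to controls.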

Phytophthora infestans = assay: whole plant or invertebrate; settings: tomato late blight
[2] = system: Pseudoperonospora cubensis; assay: Test A: cucumber downy mildew, spray the day before inoculation (disease rating, 100 = 100% disease control)
In short: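 Cucumber seedlings were sprayed to run-off with compound suspended in acetone/water containing 250 ppm Trem 014 (200 ppm equated to 500 g/ha), then inoculated with P. cubensis spores the next day. Plants were kept 24 h at 20 °C in saturated humidity, then 6 days at 20 °C, before disease rating relative to controls.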

[3] = system: Pseudoperonospora cubensis; assay: Test F: cucumber downy mildew, DMSO/acetone/water test suspension, spray the day before inoculation (disease rating, 100 = 100% disease control)
In short: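 Cucumber seedlings inoculated with spores one day after spraying with the test suspension (4% DMSO in acetone/water 30/70; 250 ppm ≈ 250 g/ha). Kept 24 h in saturated air, then 6 days in a growth chamber, both at 20° C. Scored as % disease control versus untreated (100 = full control).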

Plasmopara viticola = assay: Test B: grape downy mildew, spray 24 h after inoculation (disease rating, 100 = 100% disease control)
In short: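 This is a curative spray test, applied 24 h after inoculation. Compounds in 50/50 acetone–water with 250 ppm Trem 014 surfactant were sprayed to run-off on P. viticola-infected seedlings, with 200 ppm equating to 500 g/ha. Plants were kept 5 days in a 20 °C growth chamber, then 24 h humid, and scored 0–100 for disease control relative to controls.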

[4] = sprayed the day before inoculation, unmarked compounds (no asterisk, not 40 or 10 ppm)
[5] = spray the day before inoculation, compounds without asterisk (not 40 or 10 ppm)
[6] = DMSO/acetone/water suspension, spray the day before inoculation, compounds without asterisk
[7] = spray 24 h after inoculation, compounds without asterisk (not 40 or 10 ppm)

Compound	Test E disease rating (100 = 100% disease control, 0 = no disease control) ([1]; sprayed the day before inoculation, 7 days at 20° C., unmarked compounds (no asterisk, not 40 or 10 ppm))	Test C disease rating (100 = 100% disease control, 0 = no disease control) (Phytophthora infestans; [4])	Test A disease rating (100 = 100% disease control, 0 = no disease control) [2, 4]	Test F disease rating (100 = 100% disease control, 0 = no disease control) ([3]; DMSO/acetone/water test suspension, sprayed the day before inoculation, unmarked compounds (no asterisk))	Test B disease rating (100 = 100% disease control, 0 = no disease control) (Plasmopara viticola; sprayed 24 h after inoculation, unmarked compounds (no asterisk, not 40 or 10 ppm))	Test E disease rating (100 = 100% disease control, 0 = no disease control) [1, 5] [%]	Test C disease rating (100 = 100% disease control, 0 = no disease control) (Phytophthora infestans; [5]) [%]	Test A disease rating (100 = 100% disease control, 0 = no disease control) [2, 5] [%]	Test F disease rating (100 = 100% disease control, 0 = no disease control) [3, 6] [%]	Test B disease rating (100 = 100% disease control, 0 = no disease control) (Plasmopara viticola; [7]) [%]
N#CC(NC(=O)c1csc(C2CCN(C(=O)Cc3cccc(Br)c3)CC2)n1)c1ccccc1 (stereo not drawn) [compound 282]	0	0	55	39	8	–	–	–	–	–
N-(2,3-dihydro-2,2-dimethyl-1H-inden-1-yl)-N-methyl-2-[1-[[5-methyl-3-(trifluoromethyl)-1H-pyrazol-1-yl]acetyl]-4-piperidinyl]-4-thiazolecarboxamide [Compound 222]	–	–	–	–	–	21	99	100	100	99
N-(2,3-dihydro-2-methyl-1H-inden-1-yl)-N-methyl-2-[1-[[5-methyl-3-(trifluoromethyl)-1H-pyrazol-1-yl]acetyl]-4-piperidinyl]-4-thiazolecarboxamide [Compound 226]	–	–	–	–	–	0	93	100	99	0
N-methyl-1-[1-[[5-methyl-3-(trifluoromethyl)-1H-pyrazol-1-yl]acetyl]-4-piperidinyl]-N-[(1R)-1,2,3,4-tetrahydro-1-naphthalenyl]-1H-pyrazole-3-carboxamide [Compound 231]	–	–	–	–	–	0	100	100	96	80
N-methyl-2-[1-[[5-methyl-3-(trifluoromethyl)-1H-pyrazol-1-yl]acetyl]-4-piperidinyl]-N-(1,2,3,4-tetrahydro-4-oxo-1-naphthalenyl)-4-thiazolecarboxamide [Compound 211]	–	–	–	–	–	0	99	100	92	8
N-methyl-2-[1-[[5-methyl-3-(trifluoromethyl)-1H-pyrazol-1-yl]acetyl]-4-piperidinyl]-N-[(1R)-1,2,3,4-tetrahydro-1-naphthalenyl]-2H-1,2,3-triazole-4-carboxamide [Compound 232]	–	–	–	–	–	0	95	87	93	0
N-methyl-2-[1-[[5-methyl-3-(trifluoromethyl)-1H-pyrazol-1-yl]acetyl]-4-piperidinyl]-N-[(1R)-1,2,3,4-tetrahydro-1-naphthalenyl]-4-oxazolecarboxamide [Compound 151]	–	–	–	–	–	0	29	99	93	31
N-methyl-2-[1-[[5-methyl-3-(trifluoromethyl)-1H-pyrazol-1-yl]acetyl]-4-piperidinyl]-N-[(1R)-1,2,3,4-tetrahydro-1-naphthalenyl]-4-thiazolecarbothioamide [Compound 289]	–	–	–	–	–	0	98	100	47	33
N-methyl-2-[1-[[5-methyl-3-(trifluoromethyl)-1H-pyrazol-1-yl]acetyl]-4-piperidinyl]-N-[(1R)-1-phenylpropyl]-4-thiazolecarboxamide [Compound 117]	–	–	–	–	–	50	96	100	86	67
